Experimental data from paper PMC9851200, “Multiparameter phenotypic screening for endogenous TFEB and TFE3 translocation identifies novel chemical series modulating lysosome function” (Autophagy, 2022).

Key:
Format in all cases: binding
[1] = biological target: kinases (KINOMEscan panel) (Homo sapiens, UniProt Q9Y2H9); conditions: MAST1; NEW KINOMEscan
[2] = biological target: kinases (KINOMEscan panel) (Homo sapiens, UniProt Q9HAZ1); conditions: kinase CLK4; NEW KINOMEscan
[3] = biological target: T1, kinases (KINOMEscan panel) (Homo sapiens, UniProt Q6XUX3); conditions: DSTYK; NEW KINOMEscan
T1 sequence (Q6XUX3 1-929): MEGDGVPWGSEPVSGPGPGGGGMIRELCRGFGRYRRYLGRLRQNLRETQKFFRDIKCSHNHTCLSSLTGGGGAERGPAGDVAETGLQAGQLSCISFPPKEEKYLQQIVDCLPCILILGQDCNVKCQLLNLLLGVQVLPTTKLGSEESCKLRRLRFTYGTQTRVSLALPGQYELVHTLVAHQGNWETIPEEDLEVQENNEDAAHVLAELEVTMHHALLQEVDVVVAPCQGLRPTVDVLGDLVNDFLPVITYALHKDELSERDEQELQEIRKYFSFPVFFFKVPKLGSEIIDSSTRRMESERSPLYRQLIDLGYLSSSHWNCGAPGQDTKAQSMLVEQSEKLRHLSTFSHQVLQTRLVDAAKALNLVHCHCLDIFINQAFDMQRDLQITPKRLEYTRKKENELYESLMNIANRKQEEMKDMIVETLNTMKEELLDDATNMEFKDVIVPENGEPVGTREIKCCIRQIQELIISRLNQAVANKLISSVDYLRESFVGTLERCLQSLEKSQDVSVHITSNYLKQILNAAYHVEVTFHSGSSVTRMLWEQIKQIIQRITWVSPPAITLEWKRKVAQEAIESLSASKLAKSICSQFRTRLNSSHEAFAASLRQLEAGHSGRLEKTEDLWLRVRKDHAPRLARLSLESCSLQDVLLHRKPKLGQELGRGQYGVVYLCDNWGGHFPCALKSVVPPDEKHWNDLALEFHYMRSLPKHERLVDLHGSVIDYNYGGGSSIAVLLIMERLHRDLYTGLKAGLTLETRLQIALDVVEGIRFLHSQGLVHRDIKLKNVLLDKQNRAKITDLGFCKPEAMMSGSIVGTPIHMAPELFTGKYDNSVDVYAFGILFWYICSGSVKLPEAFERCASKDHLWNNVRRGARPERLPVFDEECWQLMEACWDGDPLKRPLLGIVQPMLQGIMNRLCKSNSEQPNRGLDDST

[4] = biological target: kinases (KINOMEscan panel) (Homo sapiens, UniProt Q8N5S9); conditions: CAMKK1; NEW KINOMEscan
kinases (KINOMEscan panel) (Homo sapiens, UniProt Q8N5S9), sequence (Q8N5S9 whole entry): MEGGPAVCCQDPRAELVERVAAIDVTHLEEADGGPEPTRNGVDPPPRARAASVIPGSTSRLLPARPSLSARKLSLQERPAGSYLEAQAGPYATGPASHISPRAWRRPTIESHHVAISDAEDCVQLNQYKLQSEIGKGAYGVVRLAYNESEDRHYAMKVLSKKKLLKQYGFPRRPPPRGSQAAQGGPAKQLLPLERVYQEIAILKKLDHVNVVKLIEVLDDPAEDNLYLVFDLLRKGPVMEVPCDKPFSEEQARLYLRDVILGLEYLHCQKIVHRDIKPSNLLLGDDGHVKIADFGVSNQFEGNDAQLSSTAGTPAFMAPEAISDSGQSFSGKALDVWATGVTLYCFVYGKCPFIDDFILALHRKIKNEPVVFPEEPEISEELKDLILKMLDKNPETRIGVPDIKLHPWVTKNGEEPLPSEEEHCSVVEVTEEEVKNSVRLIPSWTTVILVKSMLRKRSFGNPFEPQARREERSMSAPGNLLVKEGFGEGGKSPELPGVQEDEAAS

[5] = biological target: kinases (KINOMEscan panel) (Plasmodium falciparum, UniProt P62344); conditions: PFCDPK1(P.falciparum); NEW KINOMEscan
kinases (KINOMEscan panel) (Plasmodium falciparum, UniProt P62344), sequence (P62344 whole entry): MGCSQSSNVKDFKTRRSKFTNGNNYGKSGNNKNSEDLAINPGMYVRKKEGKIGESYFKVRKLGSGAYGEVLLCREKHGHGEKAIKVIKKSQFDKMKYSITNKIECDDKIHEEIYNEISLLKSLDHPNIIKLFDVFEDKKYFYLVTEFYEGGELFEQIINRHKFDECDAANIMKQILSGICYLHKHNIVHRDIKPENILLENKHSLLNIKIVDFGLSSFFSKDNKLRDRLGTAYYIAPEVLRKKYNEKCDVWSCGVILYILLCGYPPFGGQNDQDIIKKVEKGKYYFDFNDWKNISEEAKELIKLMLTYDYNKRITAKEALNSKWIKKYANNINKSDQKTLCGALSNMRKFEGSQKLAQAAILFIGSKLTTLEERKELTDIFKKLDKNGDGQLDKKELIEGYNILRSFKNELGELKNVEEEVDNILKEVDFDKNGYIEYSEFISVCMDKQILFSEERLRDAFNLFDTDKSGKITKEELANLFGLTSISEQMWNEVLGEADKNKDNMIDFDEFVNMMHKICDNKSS

[6] = biological target: kinases (KINOMEscan panel) (Homo sapiens, UniProt Q9NYY3); conditions: PLK2; NEW KINOMEscan
kinases (KINOMEscan panel) (Homo sapiens, UniProt Q9NYY3), sequence (Q9NYY3 whole entry): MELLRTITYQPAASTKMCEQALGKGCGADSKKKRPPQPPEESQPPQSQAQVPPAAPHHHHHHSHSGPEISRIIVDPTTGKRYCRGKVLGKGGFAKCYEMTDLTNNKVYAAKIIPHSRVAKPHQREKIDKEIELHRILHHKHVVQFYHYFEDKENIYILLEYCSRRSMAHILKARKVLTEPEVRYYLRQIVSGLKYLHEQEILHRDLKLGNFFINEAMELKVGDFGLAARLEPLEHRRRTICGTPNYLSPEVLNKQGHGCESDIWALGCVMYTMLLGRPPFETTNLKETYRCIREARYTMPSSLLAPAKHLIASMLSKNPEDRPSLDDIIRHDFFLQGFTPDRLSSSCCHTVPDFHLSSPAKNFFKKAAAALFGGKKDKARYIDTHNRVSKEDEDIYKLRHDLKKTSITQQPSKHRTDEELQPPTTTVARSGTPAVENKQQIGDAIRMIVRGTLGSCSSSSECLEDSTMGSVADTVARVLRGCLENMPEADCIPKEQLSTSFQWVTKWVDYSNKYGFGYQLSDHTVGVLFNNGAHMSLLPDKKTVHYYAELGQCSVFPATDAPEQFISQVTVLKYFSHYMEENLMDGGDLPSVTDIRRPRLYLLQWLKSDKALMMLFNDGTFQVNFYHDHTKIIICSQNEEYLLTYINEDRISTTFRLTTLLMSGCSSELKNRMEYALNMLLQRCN

[7] = biological target: kinases (KINOMEscan panel) (Homo sapiens, UniProt P14616); conditions: INSRR; NEW KINOMEscan
kinases (KINOMEscan panel) (Homo sapiens, UniProt P14616), sequence (P14616 27-1297): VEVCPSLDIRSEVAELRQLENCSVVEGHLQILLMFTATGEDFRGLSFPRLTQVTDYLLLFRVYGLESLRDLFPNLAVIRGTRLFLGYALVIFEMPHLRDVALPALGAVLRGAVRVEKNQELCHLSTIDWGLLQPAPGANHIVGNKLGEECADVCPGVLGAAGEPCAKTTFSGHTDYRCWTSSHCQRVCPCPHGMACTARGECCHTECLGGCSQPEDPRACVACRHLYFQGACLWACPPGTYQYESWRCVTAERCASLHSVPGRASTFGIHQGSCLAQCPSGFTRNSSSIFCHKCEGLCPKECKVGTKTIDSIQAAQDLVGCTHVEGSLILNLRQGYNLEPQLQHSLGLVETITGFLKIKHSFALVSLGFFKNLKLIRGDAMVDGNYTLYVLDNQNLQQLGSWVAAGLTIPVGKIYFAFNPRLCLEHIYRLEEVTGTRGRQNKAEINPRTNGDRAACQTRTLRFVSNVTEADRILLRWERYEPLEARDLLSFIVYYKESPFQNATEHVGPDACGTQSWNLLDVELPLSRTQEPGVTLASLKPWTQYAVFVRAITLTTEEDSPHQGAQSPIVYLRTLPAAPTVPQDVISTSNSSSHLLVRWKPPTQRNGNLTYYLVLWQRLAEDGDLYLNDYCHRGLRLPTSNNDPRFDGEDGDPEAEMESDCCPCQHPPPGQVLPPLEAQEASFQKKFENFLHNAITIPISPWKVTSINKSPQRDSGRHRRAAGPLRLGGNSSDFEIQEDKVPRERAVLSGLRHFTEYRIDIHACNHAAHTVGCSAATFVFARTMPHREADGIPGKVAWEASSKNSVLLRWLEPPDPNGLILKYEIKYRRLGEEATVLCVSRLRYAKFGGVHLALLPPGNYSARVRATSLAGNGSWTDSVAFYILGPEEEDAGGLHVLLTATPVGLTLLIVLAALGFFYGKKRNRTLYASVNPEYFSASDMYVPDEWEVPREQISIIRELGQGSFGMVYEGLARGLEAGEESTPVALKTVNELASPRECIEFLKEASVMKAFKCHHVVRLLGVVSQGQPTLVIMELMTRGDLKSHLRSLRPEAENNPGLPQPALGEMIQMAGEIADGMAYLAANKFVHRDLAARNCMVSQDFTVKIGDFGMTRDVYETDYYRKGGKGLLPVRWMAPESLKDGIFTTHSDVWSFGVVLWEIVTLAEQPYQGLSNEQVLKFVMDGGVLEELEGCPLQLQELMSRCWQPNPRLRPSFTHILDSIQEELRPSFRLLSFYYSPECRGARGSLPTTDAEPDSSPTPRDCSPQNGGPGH

[8] = biological target: T2, kinases (KINOMEscan panel) (Homo sapiens, UniProt O95835); conditions: LATS1; NEW KINOMEscan
T2 sequence (O95835 1-1130): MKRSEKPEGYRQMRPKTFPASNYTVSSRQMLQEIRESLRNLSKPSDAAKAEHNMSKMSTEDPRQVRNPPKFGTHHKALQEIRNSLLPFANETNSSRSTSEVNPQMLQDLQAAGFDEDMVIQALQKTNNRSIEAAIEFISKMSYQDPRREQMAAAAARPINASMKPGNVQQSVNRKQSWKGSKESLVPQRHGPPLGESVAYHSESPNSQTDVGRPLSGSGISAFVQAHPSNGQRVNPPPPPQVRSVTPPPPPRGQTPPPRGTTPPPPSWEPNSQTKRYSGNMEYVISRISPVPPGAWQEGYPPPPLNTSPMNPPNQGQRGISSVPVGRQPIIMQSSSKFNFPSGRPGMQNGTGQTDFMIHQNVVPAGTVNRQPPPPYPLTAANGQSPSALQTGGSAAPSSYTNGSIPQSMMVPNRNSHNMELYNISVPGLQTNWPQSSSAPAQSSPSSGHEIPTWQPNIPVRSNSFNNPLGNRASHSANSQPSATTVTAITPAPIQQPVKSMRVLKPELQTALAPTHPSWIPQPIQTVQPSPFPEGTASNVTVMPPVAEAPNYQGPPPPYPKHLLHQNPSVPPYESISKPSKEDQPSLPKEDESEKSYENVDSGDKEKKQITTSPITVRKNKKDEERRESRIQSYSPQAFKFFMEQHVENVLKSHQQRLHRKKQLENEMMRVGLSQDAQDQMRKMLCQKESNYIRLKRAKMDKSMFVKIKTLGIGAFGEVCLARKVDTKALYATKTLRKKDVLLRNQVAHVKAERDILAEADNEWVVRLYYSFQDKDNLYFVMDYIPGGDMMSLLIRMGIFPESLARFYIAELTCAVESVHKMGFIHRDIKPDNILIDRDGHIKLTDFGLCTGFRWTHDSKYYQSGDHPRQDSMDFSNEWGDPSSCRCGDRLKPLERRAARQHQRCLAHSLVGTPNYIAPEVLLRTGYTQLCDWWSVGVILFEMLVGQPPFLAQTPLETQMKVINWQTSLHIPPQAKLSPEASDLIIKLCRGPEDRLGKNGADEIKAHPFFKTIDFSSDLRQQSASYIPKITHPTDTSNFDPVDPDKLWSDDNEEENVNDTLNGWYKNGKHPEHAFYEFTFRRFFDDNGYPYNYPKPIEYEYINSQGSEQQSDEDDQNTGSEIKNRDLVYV

kinases (KINOMEscan panel) (Homo sapiens, UniProt Q9Y2H9), sequence (Q9Y2H9 whole entry): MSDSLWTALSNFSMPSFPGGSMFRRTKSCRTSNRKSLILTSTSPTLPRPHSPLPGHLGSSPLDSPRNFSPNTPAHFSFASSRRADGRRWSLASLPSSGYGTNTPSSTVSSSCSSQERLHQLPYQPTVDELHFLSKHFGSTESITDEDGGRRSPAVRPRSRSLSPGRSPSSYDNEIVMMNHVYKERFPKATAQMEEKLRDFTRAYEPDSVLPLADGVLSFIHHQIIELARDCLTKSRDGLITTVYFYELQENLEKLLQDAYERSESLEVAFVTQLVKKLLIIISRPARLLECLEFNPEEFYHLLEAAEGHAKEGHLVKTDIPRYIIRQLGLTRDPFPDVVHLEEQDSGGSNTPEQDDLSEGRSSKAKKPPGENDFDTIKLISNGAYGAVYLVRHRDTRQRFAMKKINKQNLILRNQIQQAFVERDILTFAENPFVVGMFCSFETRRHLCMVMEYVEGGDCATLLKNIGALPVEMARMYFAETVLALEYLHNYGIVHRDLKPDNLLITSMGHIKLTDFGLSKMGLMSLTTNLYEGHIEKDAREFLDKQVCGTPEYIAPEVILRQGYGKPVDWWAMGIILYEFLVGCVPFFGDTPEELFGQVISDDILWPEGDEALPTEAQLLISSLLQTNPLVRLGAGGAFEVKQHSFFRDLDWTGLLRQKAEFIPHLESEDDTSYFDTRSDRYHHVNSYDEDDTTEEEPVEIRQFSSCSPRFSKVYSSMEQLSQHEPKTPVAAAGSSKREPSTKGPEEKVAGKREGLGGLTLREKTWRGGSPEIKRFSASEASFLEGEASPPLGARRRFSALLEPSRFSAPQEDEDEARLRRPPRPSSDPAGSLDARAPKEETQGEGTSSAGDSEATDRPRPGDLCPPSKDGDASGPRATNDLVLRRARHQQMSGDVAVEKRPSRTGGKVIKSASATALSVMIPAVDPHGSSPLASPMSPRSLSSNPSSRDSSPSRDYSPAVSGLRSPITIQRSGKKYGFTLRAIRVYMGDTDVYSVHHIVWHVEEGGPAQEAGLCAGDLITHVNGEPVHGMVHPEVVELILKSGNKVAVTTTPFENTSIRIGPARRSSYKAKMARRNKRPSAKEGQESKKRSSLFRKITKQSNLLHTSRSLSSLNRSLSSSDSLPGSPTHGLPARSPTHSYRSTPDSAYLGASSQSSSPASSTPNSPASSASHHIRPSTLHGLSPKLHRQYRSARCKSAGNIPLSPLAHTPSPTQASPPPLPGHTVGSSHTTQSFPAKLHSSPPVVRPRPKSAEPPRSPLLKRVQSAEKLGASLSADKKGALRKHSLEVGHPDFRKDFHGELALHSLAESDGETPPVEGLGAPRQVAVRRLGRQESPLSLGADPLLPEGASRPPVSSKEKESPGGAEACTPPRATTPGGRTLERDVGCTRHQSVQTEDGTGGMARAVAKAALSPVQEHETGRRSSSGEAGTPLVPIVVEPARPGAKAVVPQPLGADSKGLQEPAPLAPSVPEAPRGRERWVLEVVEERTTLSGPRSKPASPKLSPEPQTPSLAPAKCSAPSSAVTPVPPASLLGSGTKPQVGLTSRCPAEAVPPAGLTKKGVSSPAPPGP
kinases (KINOMEscan panel) (Homo sapiens, UniProt Q9HAZ1), sequence (Q9HAZ1 whole entry): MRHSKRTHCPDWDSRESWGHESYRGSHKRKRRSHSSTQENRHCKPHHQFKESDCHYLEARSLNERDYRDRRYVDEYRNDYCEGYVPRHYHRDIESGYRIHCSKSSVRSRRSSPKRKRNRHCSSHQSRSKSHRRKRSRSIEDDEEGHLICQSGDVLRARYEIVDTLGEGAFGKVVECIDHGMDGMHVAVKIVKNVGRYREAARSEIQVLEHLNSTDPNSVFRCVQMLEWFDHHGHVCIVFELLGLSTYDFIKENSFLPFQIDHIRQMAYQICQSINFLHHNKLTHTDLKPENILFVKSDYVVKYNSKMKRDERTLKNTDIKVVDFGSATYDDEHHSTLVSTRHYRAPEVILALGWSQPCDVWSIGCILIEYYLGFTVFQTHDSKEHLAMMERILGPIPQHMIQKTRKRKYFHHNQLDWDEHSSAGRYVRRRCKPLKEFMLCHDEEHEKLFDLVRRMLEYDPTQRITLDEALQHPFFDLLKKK

Row | Compound | KINOMEscan MAST1 [1] | KINOMEscan CLK4 [2] | KINOMEscan DSTYK [3] | KINOMEscan CAMKK1 [4] | KINOMEscan PFCDPK1(P.falciparum) [5] | KINOMEscan PLK2 [6] | KINOMEscan INSRR [7] | KINOMEscan LATS1 [8]
1 | Cc1cccc(-c2nc(N(C)c3ccc4ncsc4c3)c3ccccc3n2)n1 [NK-161] | 0 | 10 | 0 | 9 | 0 | 0 | 0 | 5
2 | Cc1cccc(-c2nc(Nc3ccc4nn(C)cc4c3)c3ccccc3n2)n1 [NK167] | 0 | 22 | 0 | 0 | 0 | 0 | 0 | 0
